Data set [1] in a line: Chemical stability (thermal, alkaline and acidic media). In kind it is physicochemical.
The conditions of data set [2]: findings of SCCS; cited from earlier work.

Here are results for two molecules from patent US10315976B2, “Organic compounds” (Givaudan SA, priority 2013, dated 2019).

The structures appear in SMILES notation.

As for `CC(=CCCC=O)CCCC(C)(C)O` [(I), 5,9-dimethyl-9-hydroxy-decen-4-al], in data set [1], the “Stability in alkaline media” value is recorded as “unstable in alkaline media” and the Thermal stability entry was “thermally unstable”. Also, the “Degradation in alkaline conditions” value in data set [1] (above pH 10, ambient temperature) is on record as “rapidly degraded”. In addition, in data set [1] (above pH 10 or below about pH 4, elevated temperatures, compared with ambient), the “Degradation at elevated temperatures” value was “degradation proceeds even more rapidly”. In addition, the “Degradation in acidic conditions” value in data set [1] (below about pH 4, ambient temperature) was “rapidly degraded”.
Take `CC(C)(O)CCCC1=CCC(C=O)CC1` (stereo not drawn) [cyclohexal, 4(4-hydroxy-4-methylpentyl) 3-cyclohexene carboxaldehyde]: the Allergenicity result in data set [2] was “allergenic concerns”.
